This note sets out measurements from patent US20250327097A1, “ORGANISMS PRODUCING LESS CROTONIC ACID” (Global Bioenergies, priority 2021, published 2025).

Data set [1] relates to ferulic acid decarboxylase (FDC). The data set can be described thus: Inhibition of ferulic acid decarboxylase. It counts as biochemical. From the text:
In recombinant organisms or microorganisms, 3-methylcrotonic acid, the substrate of FDC, can be produced from acetyl-CoA in a multistep enzymatic process. The final conversion of 3-methylcrotonic acid into isobutene can be carried out in the same recombinant organism or microorganism that has been used for the production of 3-methylcrotonic acid. In such a one-step process, it is required that the recombinant organism or microorganism encodes the enzyme FDC. Alternatively, isobutene may be produced from 3-methylcrotonic acid in a two-step process. For that, a fermentation culture medium of a recombinant organism or microorganism comprising the produced 3-methylcrotonic acid may be contacted with a recombinant organism or microorganism encoding the enzyme FDC in an in vivo or in vitro biotransformation reaction. In an alternative two-step process, a first recombinant organism or microorganism may be used to convert acetyl-CoA into 3-hydroxyisovaleric acid and the produced 3-hydroxyisovaleric acid may then be converted into isobutene by a second recombinant organism or microorganism (via 3-methylcrotonic acid and FDC).

Data set [2] has as its target AnFdc (Aspergillus niger, UniProt A2QHE5). The data set can be described thus: Quantitative GC assay of pentene production from hexenoic acid. In kind it is biochemical.
In data set [3] the test system is TaFdc. The data set can be described thus: Acid binding and cycloadduct formation with TaFdc wild-type (UV-Vis).
Data set [4] relates to TaFdcV. The data set can be described thus: Acid binding and cycloadduct formation with TaFdcV (UV-Vis, ESI-MS, co-crystallization).
Protocol: TaFdcV (500 μL, 0.45 mM protein, 25 mM HEPES, 150 mM KCl, pH 6.8) was incubated with crotonic or 2-butynoic acid. The formation of the prFMN-crotonic acid cycloadduct was followed by UV-Vis spectroscopy and additional acid were added until full conversion (complete loss of the 380 nm peak). The protein was desalted to 25 mM HEPES, 150 mM KCl, pH 6.8 and plated for crystal trials.
Data set [5] deals with AnFdc wild-type (Aspergillus niger, UniProt A2QHE5). Description: Crotonic acid binding by UV-Vis spectra, AnFdc wild-type. The settings on record: 2-h incubation.
Data set [6] concerns the target AnFdcII (Aspergillus niger, UniProt A2QHE5, P438W/R435P/T395M). It counts as binding.
Data set [7] deals with 3-methylcrotonic acid. Description: Initial in vivo screening of Fdc homologues co-expressed with UbiX for 3-methylcrotonic acid decarboxylation (isobutene by GC). In kind it is cell-based, E. coli. The settings on record: isobutene in headspace from 10 mM 3-methylcrotonic acid; Fdc (MCS1, N-terminal 6His-tag) and UbiX (MCS2) in pETDuet.
The test system of data set [8] is crotonyl-CoA. The data set can be described thus: Coupled assay positive control: purified FabV with crotonyl-CoA. It counts as biochemical, Treponema denticola. The settings on record: 1 mM crotonyl-CoA, 100 μg/ml FabV, 18 h at 34° C. Here is the method:
The acid-CoA ligases were tested as purified enzymes with a coupled assay using purified FabV from Treponema denticola (EC 1.3.1.44) (Uniprot Accession No: Q73Q47) (to convert crotonyl-CoA to butyryl-CoA). The reaction was carried out as follows: 50 μg/ml acid-CoA ligase and 100 μg/ml FabV with a buffered solution containing 100 mM Tris-HCl pH7.5, 20 mM NaCl, 100 mM KCl, 2 mM MgCl2, 1 mM crotonic acid (TCI chemicals), 1 mM ATP (Sigma-Aldrich), 1 mM coenzyme A (Sigma-Aldrich) and 1 mM NADH (Sigma-Aldrich) were incubated 18 h at 34° C. in a water bath, and the reaction was stopped with acetonitrile. […] The produced butyryl-CoA (Sigma-Aldrich) and the consumed crotonic acid (TCI chemicals) were quantified by HPLC with a calibration curve. The samples were injected on a Zorbax SB-Aq column (Agilent) at 30° C. and eluted with 8.4 mM H2SO4 and a gradient of acetonitrile.
The CoA-transferase was tested as purified enzyme with a coupled assay using purified FabV from Treponema denticola (EC 1.3.1.44) (Uniprot Accession No: Q73Q47) (to convert crotonyl-CoA to butyryl-CoA). […] The produced butyryl-CoA (Sigma-Aldrich) and the consumed crotonic acid (TCI chemicals) were quantified by HPLC with a calibration curve. […]

In the case of `CCCC=CC(=O)O` [2-hexenoic acid], the “inhibition of FDC” value in data set [1] is listed as “irreversible inhibitors”. Also, the “pentene production from hexenoic acid” value in data set [2] is “limited to a single turnover”. Further, the “binding to TaFdc, UV-Vis spectrum after desalting” value in data set [3] is “irreversibly binds”. The “binding to TaFdcV, UV-Vis spectrum after desalting” value (from here on “binding to TaFdcV, UV-Vis spectrum”) in data set [4] is listed as “irreversibly binds”.
With `CC#CC(=O)O` [2-butynoic acid], in data set [4], the “binding to TaFdcV, UV-Vis spectrum” value is given as “covalent inhibitory adduct is formed”; the “state of the adduct by ESI-MS and co-crystallization” value was “stalls as Int1”.
As to `CCC=CC(=O)O` [2-pentenoic acid], the “inhibition of FDC” value in data set [1] is listed as “irreversible inhibitors”. Also, the “binding to TaFdc, UV-Vis spectrum after desalting” value in data set [3] is listed as “irreversibly binds”. Also, the “binding to TaFdcV, UV-Vis spectrum” value in data set [4] is given as “irreversibly binds”.
Consider `C/C=C/C(=O)O` [crotonic acid], for which the entries for the “binding by UV-Vis spectra” value in data set [5] and in data set [6] were “cannot be detected” and “readily bind the inhibitor”, respectively. The “inhibition of FDC” value in data set [1] is “irreversible inhibitors”. In addition, in data set [4], the “binding to TaFdcV, UV-Vis spectrum” value is on record as “covalent inhibitory adduct is formed”.

B1: CdFdc-UbiX: Fdc homologue, Uniprot B9WJ66, co-expressed with UbiX in pETDuet (protein, UniProt B9WJ66 1-513, looked up)
Ferulic acid decarboxylase 1: MSLNPALKFRDFIQVLKNEGDLIEIDTEVDPNLEVGAITRKAYENKLAAPLFNNLKQDPENIDPKNLFRILGCPGGLRGFGNDHARIALHLGLDSQTPMKEIIDFLVANRNPKKYIPPVLVPNDQSPHKKHHLTKEQIDLTKLPVPLLHHGDGGKFIQTYGMWVLQTPDKSWTNWSIARGMVHDSKSITGLVINPQHVKQVSDAWVAAGKGDKIPFALCFGVPPAAILVSSMPIPDGATEAEYIGGLCNQAVPVVKCETNDLEVPADCEMVFEGYLDRDTLVREGPFGEMHGYCFPKDHHTQPLYRVNHISYRDQAIMPISNPGLCTDETHTLIGGLVSAETKYLISQHPVLSKIVEDVFTPYEAQALWLAVKINTHELVKLKTNAKELSNLVGDFLFRSKECYKVCSILHEIILVGDDIDIFDFKQLIWAYTTRHTPVQDQLYFDDVKPFALAPFASQGPLIKTRQGGKCVTTCIFPKQFTDPDFEFVTCNFNGYPEEVKNKISQNWDKYYK
modifications: co-expressed with UbiX
notes: Fdc homologue, Uniprot B9WJ66, co-expressed with UbiX in pETDuet
As to B1, in data set [7], the “ppm Average” value turned out to be 4.8 ppm.

B2: ScFdc-UbiX: Fdc homologue, Uniprot Q03034, co-expressed with UbiX in pETDuet (protein, UniProt Q03034 1-503, looked up)
Ferulic acid decarboxylase 1: MRKLNPALEFRDFIQVLKDEDDLIEITEEIDPNLEVGAIMRKAYESHLPAPLFKNLKGASKDLFSILGCPAGLRSKEKGDHGRIAHHLGLDPKTTIKEIIDYLLECKEKEPLPPITVPVSSAPCKTHILSEEKIHLQSLPTPYLHVSDGGKYLQTYGMWILQTPDKKWTNWSIARGMVVDDKHITGLVIKPQHIRQIADSWAAIGKANEIPFALCFGVPPAAILVSSMPIPEGVSESDYVGAILGESVPVVKCETNDLMVPATSEMVFEGTLSLTDTHLEGPFGEMHGYVFKSQGHPCPLYTVKAMSYRDNAILPVSNPGLCTDETHTLIGSLVATEAKELAIESGLPILDAFMPYEAQALWLILKVDLKGLQALKTTPEEFCKKVGDIYFRTKVGFIVHEIILVADDIDIFNFKEVIWAYVTRHTPVADQMAFDDVTSFPLAPFVSQSSRSKTMKGGKCVTNCIFRQQYERSFDYITCNFEKGYPKGLVDKVNENWKRYGYK
modifications: co-expressed with UbiX
notes: Fdc homologue, Uniprot Q03034, co-expressed with UbiX in pETDuet
In the case of B2, in data set [7], the “ppm Average” value stood at 17.6 ppm.

B3: FabV: purified FabV from Treponema denticola (EC 1.3.1.44), Uniprot Q73Q47 (protein, listed as Treponema denticola)
chain: MIVKPMVRNNICLNAHPQGCKKGVEDQIEYTKKRITAEVKAGAKAPKNVLVLGCSNGYGLASRITAAFGYGAATIGVSFEKAGSETKYGTPGWYNNLAFDEAAKREGLYSVTIDGDAFSDEIKAQVIEEAKKKGIKFDLIVYSLASPVRTDPDTGIMHKSVLKPFGKTFTGKTVDPFTGELKEISAEPANDEEAAATVKVMGGEDWERWIKQLSKEGLLEEGCITLAYSYIGPEATQALYRKGTIGKAKEHLEATAHRLNKENPSIRAFVSVNKGLVTRASAVIPVIPLYLASLFKVMKEKGNHEGCIEQITRLYAERLYRKDGTIPVDEENRIRIDDWELEEDVQKAVSALMEKVTGENAESLTDLAGYRHDFLASNGFDVEGINYEAEVERFDRI
modifications: FabV
notes: purified FabV from Treponema denticola (EC 1.3.1.44), Uniprot Q73Q47
Turning to B3, the “conversion of crotonyl-CoA to butyryl-CoA” value in data set [8] is listed as “could convert all of it to butyryl-CoA”.

B4: UbiX alone: UbiX (E. coli K-12) expressed without Fdc, control (protein, UniProt P0AG03 1-189, looked up)
Flavin prenyltransferase UbiX: MKRLIVGISGASGAIYGVRLLQVLRDVTDIETHLVMSQAARQTLSLETDFSLREVQALADVTHDARDIAASISSGSFQTLGMVILPCSIKTLSGIVHSYTDGLLTRAADVVLKERRPLVLCVRETPLHLGHLRLMTQAAEIGAVIMPPVPAFYHRPQSLDDVINQTVNRVLDQFAITLPEDLFARWQGA
As for B4, the “ppm Average” value in data set [7] turned out to be 3.3 ppm.
